From patent US20100330685A1, “DIAMINORHODAMINE DERIVATIVE” (SEKISUI MEDICAL CO., LTD., priority 2000, published 2010)
Structures can show the parent of a compound that is named as a salt.

Columns and labels:
[1] = test system: Bovine aorta endothelial cells; assay: Imaging of nitric oxide in cells; type: cell-based
Description: Bovine aorta endothelial cells were cultured on an imaging dish. The culture broth was changed to DMEM medium (supplemented with 0.2% DMSO) containing DAR-4M AM (10 μM) prepared in Example 5, and incubated at 37° C. for 30 minutes to load DAR-4M AM on the cells. The cells were washed, and the culture broth was changed again to DMEM medium not containing DAR-4M AM. After incubation at 37° C. for 1 hour, imaging was performed. The cells were examined with a fluorescence microscope equipped with an excitation filter (520 to 550 nm), a dichromic mirror (565 nm), and a barrier filter (580 nm, long pass). The measurement was performed in a warm box kept at 37° C. Imaging interval was set to be 10 seconds, and images captured by a cooled charge-coupled device camera were recorded and analyzed by an image analyzer. The results in the figure are shown with averaged change of relative fluorescence intensity of arbitrary seven cells based on the fluorescence intensity at the time of the start of the measurement. The fluorescence intensity was increased by stimulation with bradykinin (FIG. 3(A)), but the fluorescence intensity was not increased in the presence of a nitric oxide synthetase inhibitor (1 mM L-NAME) (FIG. 3(B)).

Compound	melting point [°C]	uptake into the cells ([1]; 10 μM in DMEM medium, 37° C., 30 minutes)	fluorescence intensity in the presence of a nitric oxide synthetase inhibitor ([1]; 1 mM L-NAME, cells loaded with 10 μM)	fluorescence intensity on stimulation with bradykinin ([1]; cells loaded with 10 μM, 37° C., 30 minutes, average of seven cells)	reaction with nitric oxide in the cells ([1]; DAR-4M produced in the cells from DAR-4M AM)
CNc1ccc(-c2c3ccc(N(C)C)cc3[o+]c3cc(N(C)C)ccc23)c(C(=O)OCOC(C)=O)c1N.[I-] [DAR-4M AM, 3,6-bis(dimethylamino)-9-[2-acetoxymethoxycarbonyl-3-amino-4-(N-methylamino)phenyl]xanthylium iodide]	177 to 178	taken into the cells	not increased	increased	–
CNc1ccc(-c2c3ccc(N(C)C)cc3[o+]c3cc(N(C)C)ccc23)c(C(=O)[O-])c1N [DAR-4M, 3,6-bis(dimethylamino)-9-[3-amino-4-(N-methylamino)-2-carboxyphenyl]xanthylium intramolecular salt]	–	–	–	–	specifically reacted with nitric oxide
CCN(CC)c1ccc2c(-c3ccc(NC)c(N)c3C(=O)OCOC(C)=O)c3ccc(N(CC)CC)cc3[o+]c2c1.[I-] [DAR-M AM, 3,6-bis(diethylamino)-9-[2-acetoxymethoxycarbonyl-3-amino-4-(N-methylamino)phenyl]xanthylium iodide]	147 to 150	–	–	–	–
